Assay results: US20240343704A1, “HALO-SUBSTITUTED AMINO PYRIDINE COMPOUNDS AS INHIBITORS OF THE HAEMATOPOIETIC PROGENITOR KINASE 1 (HPK1)” (priority 2021, published 2024)

What was measured:
Lck (h) = Lck (h) (Homo sapiens, UniProt P06239); assay: Lck Human  Kinase Enzymatic Radiometric Assay; format: biochemical; settings: read-out: Lck IC50 nM Range*
How it was run: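 Substrate 33P-incorporation measured by scintillation counting after spotting on P30 filtermat and phosphoric acid washes. Human Lck reacted 40 min at RT in 50 mM Tris pH 7.5 with 10 mM MgAcetate, [gamma-33P]-ATP, 250 uM Cdc2 peptide, 0.1 mM EGTA and 0.1 mM Na3VO4.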

[1] = biological target: T1, Recombinant (1-346) HPK1 (h) (Homo sapiens, UniProt Q92918); assay: HPK1 Human STE Kinase Enzymatic Radiometric Assay; format: biochemical; settings: read-out: HPK1 IC50 nM Range*
T1 construct: Recombinant (1-346) HPK1 (h) is incubated with 8 mM MOPS pH 7.0
T1 sequence (Q92918 1-346): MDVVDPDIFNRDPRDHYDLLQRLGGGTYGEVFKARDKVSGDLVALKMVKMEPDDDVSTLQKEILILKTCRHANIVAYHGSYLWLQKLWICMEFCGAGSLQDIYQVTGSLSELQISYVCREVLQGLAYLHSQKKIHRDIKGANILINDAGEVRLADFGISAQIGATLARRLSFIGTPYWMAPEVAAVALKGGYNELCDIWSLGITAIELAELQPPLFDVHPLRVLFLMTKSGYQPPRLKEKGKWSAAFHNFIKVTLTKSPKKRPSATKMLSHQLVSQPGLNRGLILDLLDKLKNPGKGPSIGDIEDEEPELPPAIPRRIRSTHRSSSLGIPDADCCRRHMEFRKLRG
Method: A stock solution of 10 mM of test compound is prepared in DMSO. The compound plate was prepared by 3-fold and 9-point serial dilutions. […] The reaction is initiated by The addition of the Mg/ATP mix. After incubation for 40 minutes at RT, the reaction is stopped by the addition of phosphoric acid to a concentration of 0.5%.

Sequence of Lck (h) (P06239 whole entry): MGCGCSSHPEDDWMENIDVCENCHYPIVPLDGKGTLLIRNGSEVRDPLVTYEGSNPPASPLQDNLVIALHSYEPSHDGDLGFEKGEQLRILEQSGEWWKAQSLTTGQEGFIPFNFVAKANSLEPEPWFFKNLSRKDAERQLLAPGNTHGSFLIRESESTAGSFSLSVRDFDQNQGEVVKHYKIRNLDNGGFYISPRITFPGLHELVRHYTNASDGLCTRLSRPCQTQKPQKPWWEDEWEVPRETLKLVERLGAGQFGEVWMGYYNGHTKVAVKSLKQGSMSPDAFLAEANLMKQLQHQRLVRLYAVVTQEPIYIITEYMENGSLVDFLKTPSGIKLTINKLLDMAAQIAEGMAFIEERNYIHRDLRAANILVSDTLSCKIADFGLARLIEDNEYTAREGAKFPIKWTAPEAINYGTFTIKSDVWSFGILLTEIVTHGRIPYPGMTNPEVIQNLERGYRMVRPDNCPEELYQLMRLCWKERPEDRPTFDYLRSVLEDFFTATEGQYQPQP

IC50 (Lck (h))	IC50 [1]	Structure (SMILES)
> 1000 nM	11 to 100 nM	CN1CCN(c2ccc(-c3cc(-c4ccc5c(c4)C(C)(C)NC5=O)c(N)nc3F)cc2)C=N1 [I-37, 5-(2-amino-6-fluoro-5-(4-(1-methyl-5,6-dihydro-1,2,4-triazin-4(1H)-yl)phenyl)pyridin-3-yl)-3,3-dimethylisoindolin-1-one 2,2,2-trifluoroacetate]
> 1000 nM	0.1 to 10 nM	Nc1nc(F)c(-c2ccc(N3CCN4CCOC[C@H]4C3)cc2)cc1-c1ccc2c(c1)CCNC2=O [I-38, (R)-6-(2-amino-6-fluoro-5-(4-(hexahydropyrazino[2,1-c][1,4]oxazin-8(1H)-yl)phenyl)pyridin-3-yl)-3,4-dihydroisoquinolin-1(2H)-one]
> 1000 nM	0.1 to 10 nM	Nc1nc(F)c(-c2ccc(N3CCN4CCOC[C@@H]4C3)cc2)cc1-c1ccc2c(c1)CCNC2=O [I-39, (S)-6-(2-amino-6-fluoro-5-(4-(hexahydropyrazino[2,1-c][1,4]oxazin-8(1H)-yl)phenyl)pyridin-3-yl)-3,4-dihydroisoquinolin-1(2H)-one]
> 1000 nM	0.1 to 10 nM	CN1CCN(c2ccc(-c3cc(-c4ccc5c(c4)CCNC5=O)c(N)nc3F)cc2F)CC1 [I-40, 6-(2-amino-6-fluoro-5-(3-fluoro-4-(4-methylpiperazin-1-yl)phenyl)pyridin-3-yl)-3,4-dihydroisoquinolin-1(2H)-one]
> 1000 nM	0.1 to 10 nM	CCN1CCN(c2ccc(-c3cc(-c4ccc5c(c4)CCNC5=O)c(N)nc3F)cc2)CC1 [I-41, 6-(2-amino-5-(4-(4-ethylpiperazin-1-yl)phenyl)-6-fluoropyridin-3-yl)-3,4-dihydroisoquinolin-1(2H)-one]
> 1000 nM	0.1 to 10 nM	CC(C)N1CCN(c2ccc(-c3cc(-c4ccc5c(c4)CCNC5=O)c(N)nc3F)cc2)CC1 [I-42, 6-(2-amino-6-fluoro-5-(4-(4-isopropylpiperazin-1-yl)phenyl)pyridin-3-yl)-3,4-dihydroisoquinolin-1(2H)-one]
> 1000 nM	0.1 to 10 nM	CN1CCC(Oc2ccc(-c3cc(-c4ccc5c(c4)CCNC5=O)c(N)nc3F)cc2)CC1 [I-44, 6-(2-amino-6-fluoro-5-(4-((1-methylpiperidin-4-yl)oxy)phenyl)pyridin-3-yl)-3,4-dihydroisoquinolin-1(2H)-one]
> 1000 nM	0.1 to 10 nM	CN(C)CCN(C)c1ccc(-c2cc(-c3ccc4c(c3)CCNC4=O)c(N)nc2F)cc1 [I-45, 6-(2-amino-5-(4-((2-(dimethylamino)ethyl)(methyl)amino)phenyl)-6-fluoropyridin-3-yl)-3,4-dihydroisoquinolin-1(2H)-one]
> 1000 nM	11 to 100 nM	C[C@@H]1CCCN1c1ccc(-c2cc(-c3ccc4c(c3)CCNC4=O)c(N)nc2F)cc1 [I-46, (R)-6-(2-amino-6-fluoro-5-(4-(2-methylpyrrolidin-1-yl)phenyl)pyridin-3-yl)-3,4-dihydroisoquinolin-1(2H)-one]
> 1000 nM	11 to 100 nM	C[C@@H]1CCCN1c1ccc(-c2cc(-c3ccc4c(c3)CCNC4=O)c(N)nc2F)c(F)c1 [I-47, (R)-6-(2-amino-6-fluoro-5-(2-fluoro-4-(2-methylpyrrolidin-1-yl)phenyl)pyridin-3-yl)-3,4-dihydroisoquinolin-1(2H)-one]
> 1000 nM	0.1 to 10 nM	CC(C)[C@@H]1CN(c2ccc(-c3cc(-c4ccc5c(c4)CCNC5=O)c(N)nc3F)cc2)CCN1C [I-48, (R)-6-(2-amino-6-fluoro-5-(4-(3-isopropyl-4-methylpiperazin-1-yl)phenyl)pyridin-3-yl)-3,4-dihydroisoquinolin-1(2H)-one]
> 1000 nM	0.1 to 10 nM	CC(C)[C@@H]1CN(c2ccc(-c3cc(-c4ccc5c(c4)CCNC5=O)c(N)nc3F)c(F)c2)CCN1C [I-49, (R)-6-(2-amino-6-fluoro-5-(2-fluoro-4-(3-isopropyl-4-methylpiperazin-1-yl)phenyl)pyridin-3-yl)-3,4-dihydroisoquinolin-1(2H)-one]
> 1000 nM	0.1 to 10 nM	CC(C)[C@H]1CN(c2ccc(-c3cc(-c4ccc5c(c4)CCNC5=O)c(N)nc3F)cc2)CCN1C [I-50, (S)-6-(2-amino-6-fluoro-5-(4-(3-isopropyl-4-methylpiperazin-1-yl)phenyl)pyridin-3-yl)-3,4-dihydroisoquinolin-1(2H)-one]
> 1000 nM	0.1 to 10 nM	CC(C)[C@H]1CN(c2ccc(-c3cc(-c4ccc5c(c4)CCNC5=O)c(N)nc3F)c(F)c2)CCN1C [I-51, (S)-6-(2-amino-6-fluoro-5-(2-fluoro-4-(3-isopropyl-4-methylpiperazin-1-yl)phenyl)pyridin-3-yl)-3,4-dihydroisoquinolin-1(2H)-one]
> 1000 nM	0.1 to 10 nM	CCN1CCCC(c2ccc(-c3cc(-c4ccc5c(c4)CCNC5=O)c(N)nc3F)cc2)C1 (centres unmarked) [I-52, 6-(2-amino-5-(4-(1-ethylpiperidin-3-yl)phenyl)-6-fluoropyridin-3-yl)-3,4-dihydroisoquinolin-1(2H)-one]
> 1000 nM	0.1 to 10 nM	CCN1CCC(c2ccc(-c3cc(-c4ccc5c(c4)CCNC5=O)c(N)nc3F)cc2)CC1 [I-53, 6-(2-amino-5-(4-(1-ethylpiperidin-4-yl)phenyl)-6-fluoropyridin-3-yl)-3,4-dihydroisoquinolin-1(2H)-one]
> 1000 nM	0.1 to 10 nM	CS(=O)(=O)N1CCC(Oc2ccc(-c3cc(-c4ccc5c(c4)CCNC5=O)c(N)nc3F)cc2)CC1 [I-54, 6-(2-amino-6-fluoro-5-(4-((1-(methylsulfonyl)piperidin-4-yl)oxy)phenyl)pyridin-3-yl)-3,4-dihydroisoquinolin-1(2H)-one]
> 1000 nM	0.1 to 10 nM	Nc1nc(F)c(-c2cnn(C3CCOCC3)c2)cc1-c1ccc2c(c1)CCNC2=O [I-55, 6-(2-amino-6-fluoro-5-(1-(tetrahydro-2H-pyran-4-yl)-1H-pyrazol-4-yl)pyridin-3-yl)-3,4-dihydroisoquinolin-1(2H)-one]
> 1000 nM	11 to 100 nM	CC(C)(C)OC(=O)N1CC=C(c2ccc(-c3cc(-c4ccc5c(c4)CCNC5=O)c(N)nc3F)cc2)CC1 [I-56, tert-butyl4-(4-(6-amino-2-fluoro-5-(1-oxo-1,2,3,4-tetrahydroisoquinolin-6-yl)pyridin-3-yl)phenyl)-3,6-dihydropyridine-1(2H)-carboxylate]
> 1000 nM	0.1 to 10 nM	CN1CCOc2cc(-c3cc(-c4ccc5c(c4)CCNC5=O)c(N)nc3F)ccc21 [I-58, 6-(2-amino-6-fluoro-5-(4-methyl-3,4-dihydro-2H-benzo[b][1,4]oxazin-7-yl)pyridin-3-yl)-3,4-dihydroisoquinolin-1(2H)-one]
> 1000 nM	11 to 100 nM	Nc1nc(F)c(-c2ccc(N3CCCC3)cc2)cc1-c1ccc2c(c1)CCNC2=O [I-59, 6-(2-amino-6-fluoro-5-(4-(pyrrolidin-1-yl)phenyl)pyridin-3-yl)-3,4-dihydroisoquinolin-1(2H)-one]
> 1000 nM	0.1 to 10 nM	CN1CCN(c2ccc(-c3cc(-c4ccc5c(c4)CCNC5=O)c(N)nc3F)c(Cl)c2)CC1 [I-61, 6-(2-amino-5-(2-chloro-4-(4-methylpiperazin-1-yl)phenyl)-6-fluoropyridin-3-yl)-3,4-dihydroisoquinolin-1(2H)-one]
> 1000 nM	0.1 to 10 nM	CS(=O)(=O)c1ccc(-c2cc(-c3ccc4c(c3)CCNC4=O)c(N)nc2F)cc1 [I-62, 6-(2-amino-6-fluoro-5-(4-(methylsulfonyl)phenyl)pyridin-3-yl)-3,4-dihydroisoquinolin-1(2H)-one]
> 1000 nM	0.1 to 10 nM	Nc1nc(F)c(-c2ccc(S(=O)(=O)C3CC3)cc2)cc1-c1ccc2c(c1)CCNC2=O [I-63, 6-(2-amino-5-(4-(cyclopropylsulfonyl)phenyl)-6-fluoropyridin-3-yl)-3,4-dihydroisoquinolin-1(2H)-one]
> 1000 nM	0.1 to 10 nM	CN(C)S(=O)(=O)c1ccc(-c2cc(-c3ccc4c(c3)CCNC4=O)c(N)nc2F)cc1 [I-64, 4-(6-amino-2-fluoro-5-(1-oxo-1,2,3,4-tetrahydroisoquinolin-6-yl)pyridin-3-yl)-N,N-dimethylbenzenesulfonamide]
> 1000 nM	11 to 100 nM	CCN(CC)S(=O)(=O)c1ccc(-c2cc(-c3ccc4c(c3)CCNC4=O)c(N)nc2F)cc1 [I-65, 4-(6-amino-2-fluoro-5-(1-oxo-1,2,3,4-tetrahydroisoquinolin-6-yl)pyridin-3-yl)-N,N-diethylbenzenesulfonamide]

Structure (SMILES)	IC50 (Lck (h))	IC50 [1]
Nc1nc(F)c(-c2ccc(C3CCN(CC(F)F)CC3)cc2)cc1-c1ccc2c(c1)CCNC2=O [I-43, 6-(2-amino-5-(4-(1-(2,2-difluoroethyl)piperidin-4-yl)phenyl)-6-fluoropyridin-3-yl)-3,4-dihydroisoquinolin-1(2H)-one]	> 1000 nM	0.1 to 10 nM
Nc1nc(F)c(-c2ccc(C3=CCNCC3)cc2)cc1-c1ccc2c(c1)CCNC2=O [I-57, 6-(2-amino-6-fluoro-5-(4-(1,2,3,6-tetrahydropyridin-4-yl)phenyl)pyridin-3-yl)-3,4-dihydroisoquinolin-1(2H)-one 2,2,2-trifluoroacetate]	> 1000 nM	0.1 to 10 nM
